Here are results for one molecule from patent publication US10485766B2, “Drug delivery system and method for the treatment of neuro-degenerative disease” (Aphios Corporation, priority 2011, dated 2019).

In data set [1] the test system is Mouse strain B6C3-Tg carrying mutant sweAPP and PS1 genes. Put plainly: Water maze studies. Format: in vivo. Conditions: 5 micrograms/mouse on alternative days orally in oil formulation; sweAPP/PS1 mice, 5-6 months of age; versus control animals. The source says: Mouse strain B6C3-Tg carrying mutant Swedish Amyloid precursor protein (sweAPP) and PS1 (presenilin-1) genes associated with early onset Alzheimer's disease were subjected to water maze tests at 5-6 months of age.

The test system of data set [2] is alpha-secretase processing of amyloid precursor protein (APP). Put plainly: alpha-secretase processing of APP to s-APP alpha in SH-SY5Y neuroblastoma cell line. The note with it: as nanospheres. Format: cell-based. The source says: (§1) These events are well-described cell and pharmacological events associated with prevention of beta-secretase mediated formation of beta-amyloid, the presumptive cause of dementia in human Alzheimer's disease and in the sweAPP/PS1 mouse model of Alzheimer's disease.

In data set [3] the target is T1, protein kinase C (PKC) isoform alpha (Homo sapiens, UniProt P17252).
T1 construct: (measured by membrane translocation) in the SH-SY5Y neuroblastoma cell line; endogenous in cells; host or cells: SH-SY5Y neuroblastoma cell line
As to the kind of experiment: PKC alpha activation (membrane translocation) in SH-SY5Y cells. Format: cell-based. The note with it: as nanospheres; SH-SY5Y neuroblastoma cell line.

In data set [4] the target is T2, protein kinase C (PKC) isoform epsilon (Homo sapiens, UniProt Q02156).
T2 construct: (measured by membrane translocation) in the SH-SY5Y neuroblastoma cell line; endogenous in cells; host or cells: SH-SY5Y neuroblastoma cell line
T2 sequence (Q02156 1-737): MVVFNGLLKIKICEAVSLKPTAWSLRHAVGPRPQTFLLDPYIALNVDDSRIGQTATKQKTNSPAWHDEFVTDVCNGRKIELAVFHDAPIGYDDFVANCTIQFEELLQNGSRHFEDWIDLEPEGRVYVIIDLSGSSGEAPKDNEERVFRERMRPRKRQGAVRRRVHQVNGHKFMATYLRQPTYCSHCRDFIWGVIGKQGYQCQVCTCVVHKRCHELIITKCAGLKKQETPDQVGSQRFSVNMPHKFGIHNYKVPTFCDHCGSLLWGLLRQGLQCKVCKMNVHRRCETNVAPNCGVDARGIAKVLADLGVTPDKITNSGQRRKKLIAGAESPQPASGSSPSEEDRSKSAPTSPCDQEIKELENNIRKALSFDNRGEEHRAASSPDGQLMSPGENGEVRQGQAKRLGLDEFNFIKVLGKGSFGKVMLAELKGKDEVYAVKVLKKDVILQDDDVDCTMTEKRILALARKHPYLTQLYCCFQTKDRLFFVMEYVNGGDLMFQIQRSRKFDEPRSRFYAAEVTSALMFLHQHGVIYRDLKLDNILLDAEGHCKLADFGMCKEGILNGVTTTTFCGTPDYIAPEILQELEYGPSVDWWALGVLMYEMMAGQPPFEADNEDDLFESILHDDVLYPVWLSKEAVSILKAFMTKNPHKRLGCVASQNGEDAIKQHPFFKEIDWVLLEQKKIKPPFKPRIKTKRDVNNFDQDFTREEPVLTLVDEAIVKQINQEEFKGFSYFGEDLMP
As to the kind of experiment: PKC epsilon activation (membrane translocation) in SH-SY5Y cells. Format: cell-based. The note with it: as nanospheres; SH-SY5Y neuroblastoma cell line.
Text: as §1

Data set [5] can be described thus: Concentrations of Bryostatin in different solvents (normal phase HPLC). It is filed as physicochemical. The note with it: for Concentration: theoretical 2.5 mg/100 mL. The protocol: Isopropyl alcohol, Extra Virgin olive oil, sesame oil, and vegetable oil were all used as solvents.
Thirty microliters of the stock solution were placed in each of 4 clean, dry HPLC vials. The ethanol was allowed to evaporate, leaving 25 micrograms in the vial. Then, 1.0 mL of the solvent was placed in the vial and vortexed to ensure proper mixing. These samples were then injected on a normal phase HPLC system, with a gradient of 10%-70% isopropyl alcohol in hexane as the mobile phase (specifically developed for this experiment).
The concentration of each vial theoretically should be 2.5 mg/100 mL.
The reason for the higher concentrations than the standard (isopropyl alcohol) is due to the baseline. While attempting a baseline subtraction for each oil, there was negative absorbance so the blank IPA sample was subtracted from each sample's baseline. While this incorporates a little more area for integration, the amount of Bryostatin in the oil was quantifiable.

Take `CCC/C=C/C=C/C(=O)O[C@H]1/C(=C/C(=O)OC)C[C@H]2C[C@H]([C@@H](C)O)OC(=O)C[C@H](O)C[C@@H]3C[C@H](OC(C)=O)C(C)(C)[C@](O)(C[C@@H]4C/C(=C/C(=O)OC)C[C@H](/C=C/C(C)(C)[C@]1(O)O2)O4)O3` [Bryostatin-1]: in data set [1], the “protection against memory loss in water maze” value is on record as “significant protection”. In addition, in data set [2], the “alpha-secretase processing of APP to s-APP alpha” value is recorded as “induce alpha-secretase processing of amyloid precursor protein (APP) to s-APP alpha”. Moreover, the “activation of PKC alpha (membrane translocation)” value in data set [3] is given as “activate”. In addition, the “activation of PKC epsilon (membrane translocation)” value in data set [4] was “activate”. The Concentration is reported as 2.9945 mg/100 mL in data set [5] (Solvent Extra Virgin Olive Oil); 2.4431 mg/100 mL in data set [5] (Solvent Extra Virgin olive with mixed natural tocopherol antioxidants, lecithin and medium chain triglyceride emulsifiers); 2.6035 mg/100 mL in data set [5] (Solvent Isopropyl Alcohol (standard)); 2.5475 mg/100 mL in data set [5] (Solvent Vegetable Oil). Besides, the solubility in oils entry in data set [5] (different types of oil) is listed as “soluble”.
